Experimental data reported in patent US10426850B2, “Collagen mimetic peptides for targeting collagen strands for in vitro and in vivo imaging and therapeutic use” (The Johns Hopkins University, priority 2011, dated 2019).

Assays:
[1] = target: T1, intact type I collagen (Rattus norvegicus, UniProt P02454+P02466); assay: Photo-triggered CMP binding assay on intact non-fibrillar collagen; conditions: intact collagens, before and after 37° C. incubation; UV-activated
T1 construct: type I rat tail, BD Science; purchased BD Science; host or cells: rat tail
T1 sequence (P02454 152-1207 limits assumed): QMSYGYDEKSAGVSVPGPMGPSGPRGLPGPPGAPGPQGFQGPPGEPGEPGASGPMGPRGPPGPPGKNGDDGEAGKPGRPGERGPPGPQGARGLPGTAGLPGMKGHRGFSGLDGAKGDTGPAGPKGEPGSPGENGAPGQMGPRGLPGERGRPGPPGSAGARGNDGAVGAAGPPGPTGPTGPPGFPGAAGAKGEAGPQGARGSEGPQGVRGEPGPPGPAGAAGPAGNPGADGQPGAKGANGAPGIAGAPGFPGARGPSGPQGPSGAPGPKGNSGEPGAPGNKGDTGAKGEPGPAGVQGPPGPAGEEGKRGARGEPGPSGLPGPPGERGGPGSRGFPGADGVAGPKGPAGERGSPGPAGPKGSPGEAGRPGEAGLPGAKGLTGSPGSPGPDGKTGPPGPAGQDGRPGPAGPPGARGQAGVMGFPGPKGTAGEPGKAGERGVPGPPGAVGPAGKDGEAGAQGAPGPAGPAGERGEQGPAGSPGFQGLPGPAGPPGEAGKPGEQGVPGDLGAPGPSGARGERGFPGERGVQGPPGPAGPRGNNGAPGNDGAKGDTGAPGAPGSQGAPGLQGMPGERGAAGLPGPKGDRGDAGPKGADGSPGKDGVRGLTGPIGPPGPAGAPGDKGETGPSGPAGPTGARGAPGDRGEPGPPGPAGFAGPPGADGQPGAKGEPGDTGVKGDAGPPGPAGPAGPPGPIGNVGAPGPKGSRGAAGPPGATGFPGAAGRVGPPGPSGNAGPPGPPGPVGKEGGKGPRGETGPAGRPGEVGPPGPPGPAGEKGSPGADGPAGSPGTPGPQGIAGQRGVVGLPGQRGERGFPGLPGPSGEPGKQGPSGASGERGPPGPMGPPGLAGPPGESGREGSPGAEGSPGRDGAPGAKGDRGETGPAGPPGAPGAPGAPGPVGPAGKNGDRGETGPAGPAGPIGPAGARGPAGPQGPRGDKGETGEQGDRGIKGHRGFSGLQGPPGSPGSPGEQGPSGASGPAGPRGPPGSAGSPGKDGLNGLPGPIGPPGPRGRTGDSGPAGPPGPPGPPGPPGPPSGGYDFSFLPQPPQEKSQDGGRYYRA
T1 sequence (P02466 86-1125 limits assumed): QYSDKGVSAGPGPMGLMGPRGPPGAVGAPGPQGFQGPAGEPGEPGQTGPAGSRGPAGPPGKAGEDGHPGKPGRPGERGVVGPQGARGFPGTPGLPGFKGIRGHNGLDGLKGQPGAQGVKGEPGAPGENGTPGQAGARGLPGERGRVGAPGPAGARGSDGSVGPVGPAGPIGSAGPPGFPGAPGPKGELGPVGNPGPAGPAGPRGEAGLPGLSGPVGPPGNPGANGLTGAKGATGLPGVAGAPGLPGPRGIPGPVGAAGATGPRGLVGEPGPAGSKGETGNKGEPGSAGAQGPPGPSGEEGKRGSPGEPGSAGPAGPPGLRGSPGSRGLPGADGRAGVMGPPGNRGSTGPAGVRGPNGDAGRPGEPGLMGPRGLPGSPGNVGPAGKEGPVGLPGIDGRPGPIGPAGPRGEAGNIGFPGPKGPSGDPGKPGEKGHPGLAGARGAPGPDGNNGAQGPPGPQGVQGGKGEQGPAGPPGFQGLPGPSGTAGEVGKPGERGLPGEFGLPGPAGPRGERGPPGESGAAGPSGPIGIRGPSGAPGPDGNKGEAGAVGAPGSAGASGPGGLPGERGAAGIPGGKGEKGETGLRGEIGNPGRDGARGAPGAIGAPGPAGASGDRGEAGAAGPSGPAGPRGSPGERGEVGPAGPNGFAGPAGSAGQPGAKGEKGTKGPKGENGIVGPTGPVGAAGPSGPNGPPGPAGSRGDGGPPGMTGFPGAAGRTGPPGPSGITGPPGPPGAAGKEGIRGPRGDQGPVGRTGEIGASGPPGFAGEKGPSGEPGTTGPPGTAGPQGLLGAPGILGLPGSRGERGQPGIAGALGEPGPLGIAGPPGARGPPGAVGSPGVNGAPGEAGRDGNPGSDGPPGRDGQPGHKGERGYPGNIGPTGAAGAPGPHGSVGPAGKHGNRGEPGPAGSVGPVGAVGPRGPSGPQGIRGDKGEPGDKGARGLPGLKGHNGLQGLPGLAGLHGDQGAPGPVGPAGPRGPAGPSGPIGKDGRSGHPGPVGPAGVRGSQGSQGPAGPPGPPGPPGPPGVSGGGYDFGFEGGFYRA
Protocol: MMP-1 digestion of type I collagen and CMP binding assays. ProMMP-1 (1 μg, EMD Millipore) was activated by p-aminophenylmercuric acetate (1.1 mM) in 132.5 μL of TNC buffer (50 mM Tris-HCl, 0.15 M NaCl, 5 mM CaCl2, 0.02% NaN3, pH 7.5) at 37° C. for 3 hr. Type I collagen (62.6 μg) was subsequently added to the MMP-1 solution and incubated at room temperature for at least 3 days. Digested products were analyzed by SDS-PAGE and circular dichroism spectroscopy (FIG. 12). Wells of nunc black 96-well maxisorp plate were charged with 50 μL of TNC buffer containing 0.5 M glycerol, and 100 μg/mL collagen or MMP-1 cleaved collagen, and incubated at room temperature. The collagen solutions used were either kept at room temperature (22° C.) or incubated at 37° C. for 1 minute just prior to coating. […] Wells were washed extensively with PBSB followed by fluorescence (ex: 489 nm, em: 533 nm) reading with a SpectraMax M-2 microplate reader (Molecular Devices). […] The background fluorescence of empty wells was subtracted from the raw fluorescence data. For estimating the amount of adsorbed protein, un-blocked collagen-coated wells were treated with 100 μM 5-(4,6-dichlorotriazinyl)aminofluorescein (DTAF, 50 μL, in 0.1 M sodium borate buffer) at room temperature for 3 hours, and the fluorescence (ex: 489 nm, em: 533 nm) of the well was measured after washing with 1×PBS. […]

[2] = tested on: whole cell lysate of human umbilical vein endothelial cells (HUVEC); assay: SDS-PAGE staining by heat activated fluorescent CMP, cell lysate; format: binding; conditions: 6 μM
Protocol: To prepare MMP-1 cleaved collagen chain fragments, proMMP-1 (1 μg) was activated by p-aminophenylmercuric acetate (1.1 mM) in 132.5 μL of TNC buffer (50 mM Tris-HCl, 0.15 M NaCl, 5 mM CaCl2, 0.02% NaN3, pH 7.5) at 37° C. for 3 hr, after which type I collagen (62.6 μg) was added to the activated MMP-1 solution and incubated at room temperature for at least 3 days. To obtain the cell lysate, confluent HUVECs cultured in EGM-2 media at 37° C. were lysed with lysis buffer (25 mM Tris-HCl, 0.5% Triton X-100, 200 mM NaCl, 2 mM EDTA, phosphatase and protease inhibitors; Roche Applied Science). The lysate solution was spun at 15,000 g for 15 min and the supernatant was collected. The recombinant streptococcal collagen-like protein Scl2.28CL was expressed and characterized following the methods introduced by Mohs et al. (J. Biol. Chem. 282, 29757-29765 (2007)).
SDS-PAGE staining and imaging. Proteins were resolved on NuPAGE® Novex 4-12% bis-tris gels under denaturating conditions using an XCell SureLock™ Mini-Cell electrophoresis system (Life Technologies). […] The fluorescence intensities of the protein bands were quantified using GE ImageQuant™ TL software. After fluorescence imaging, all gels were further stained with coomassie brilliant blue (CB) G-250 (Bio-Rad) for 2-3 hr followed by washing, and imaging under white light illumination using a Gel Doc EQ system (BioRad).

Row | level of CMP binding [1] | Substance | staining of cell lysate protein bands [2]
1 | similarly low | CF-GGG-(GPO)4^NBGPO(GPO)4 [CF^NB(GPO)9] | –
2 | – | CF-GGG-(GPO)9 [CF(GPO)9] | no protein band was visualized
